Measured values from ChEMBL document CHEMBL1770065, “Discovery of a clinical candidate from the structurally unique dioxa-bicyclo[3.2.1]octane class of sodium-dependent glucose cotransporter 2 inhibitors” (J Med Chem, 2011).

Columns and labels:
Rattus norvegicus [1] = assay: Antidiabetic activity in Sprague-Dawley rat assessed as increase of urinary glucose excretion assessed per 200 gram of body weight at 30 mg/kg, po after 24 hrs; format: functional, Urine
[2] = target: T1, Solute carrier family 22 member 2 (Homo sapiens, UniProt O15244); assay: Inhibition of human OCT2
T1 sequence (O15244 whole entry): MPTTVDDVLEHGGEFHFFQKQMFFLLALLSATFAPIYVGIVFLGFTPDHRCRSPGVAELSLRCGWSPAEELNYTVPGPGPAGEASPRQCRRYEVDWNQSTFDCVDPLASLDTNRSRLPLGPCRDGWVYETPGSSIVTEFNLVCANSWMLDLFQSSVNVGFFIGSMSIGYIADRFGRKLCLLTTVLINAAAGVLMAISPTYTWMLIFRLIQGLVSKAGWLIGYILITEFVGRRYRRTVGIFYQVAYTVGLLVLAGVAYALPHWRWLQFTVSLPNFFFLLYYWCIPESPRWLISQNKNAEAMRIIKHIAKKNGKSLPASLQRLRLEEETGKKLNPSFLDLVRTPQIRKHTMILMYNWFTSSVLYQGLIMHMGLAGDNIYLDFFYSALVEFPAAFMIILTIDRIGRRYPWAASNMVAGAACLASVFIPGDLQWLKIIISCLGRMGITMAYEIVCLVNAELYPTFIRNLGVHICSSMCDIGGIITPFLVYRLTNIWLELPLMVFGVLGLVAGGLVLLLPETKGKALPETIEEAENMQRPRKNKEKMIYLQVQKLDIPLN

[3] = target: T2, Solute carrier family 22 member 3 (Rattus norvegicus, UniProt O88446); assay: Inhibition of rat OCT3 expressed in HEK293 cells; format: cell-based
T2 sequence (O88446 whole entry): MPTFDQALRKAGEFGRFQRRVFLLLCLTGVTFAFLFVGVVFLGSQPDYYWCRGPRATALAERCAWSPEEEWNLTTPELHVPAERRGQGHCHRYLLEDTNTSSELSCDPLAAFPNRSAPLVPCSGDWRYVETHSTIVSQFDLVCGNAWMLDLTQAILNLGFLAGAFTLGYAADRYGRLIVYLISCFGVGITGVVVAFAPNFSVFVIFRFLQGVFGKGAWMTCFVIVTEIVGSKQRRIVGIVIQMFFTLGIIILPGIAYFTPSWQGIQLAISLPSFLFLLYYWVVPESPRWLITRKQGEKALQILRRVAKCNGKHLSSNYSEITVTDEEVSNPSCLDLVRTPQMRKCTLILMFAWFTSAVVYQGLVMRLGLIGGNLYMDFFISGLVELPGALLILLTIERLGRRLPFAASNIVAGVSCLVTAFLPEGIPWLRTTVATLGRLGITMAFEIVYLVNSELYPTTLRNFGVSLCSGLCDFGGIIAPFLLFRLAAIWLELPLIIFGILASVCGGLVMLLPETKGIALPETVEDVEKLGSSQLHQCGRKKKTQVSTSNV

Rattus norvegicus [4] = assay: Antidiabetic activity in po dosed Sprague-Dawley rat assessed as increase of urinary glucose excretion after 24 hrs; format: functional, organism-based; details: Urine
[5] = Apparent intrinsic clearance in human liver microsomes assessed per mg of protein; format: ADME, Microsome
[6] = Volume of distribution at steady state in Sprague-Dawley rat at 2 mg/kg, iv; format: ADME, organism-based; parameters: dose 2 mg/kg, route intravenous; details: in vivo, read-out: Vdss
[7] = Lipophilicity, log D of the compound; format: physicochemical; details: octanol/water
[8] = target: T3, Solute carrier family 22 member 2 (Rattus norvegicus, UniProt Q9R0W2); assay: Inhibition of rat OCT2 expressed in HEK293 cells; format: cell-based
T3 sequence (Q9R0W2 whole entry): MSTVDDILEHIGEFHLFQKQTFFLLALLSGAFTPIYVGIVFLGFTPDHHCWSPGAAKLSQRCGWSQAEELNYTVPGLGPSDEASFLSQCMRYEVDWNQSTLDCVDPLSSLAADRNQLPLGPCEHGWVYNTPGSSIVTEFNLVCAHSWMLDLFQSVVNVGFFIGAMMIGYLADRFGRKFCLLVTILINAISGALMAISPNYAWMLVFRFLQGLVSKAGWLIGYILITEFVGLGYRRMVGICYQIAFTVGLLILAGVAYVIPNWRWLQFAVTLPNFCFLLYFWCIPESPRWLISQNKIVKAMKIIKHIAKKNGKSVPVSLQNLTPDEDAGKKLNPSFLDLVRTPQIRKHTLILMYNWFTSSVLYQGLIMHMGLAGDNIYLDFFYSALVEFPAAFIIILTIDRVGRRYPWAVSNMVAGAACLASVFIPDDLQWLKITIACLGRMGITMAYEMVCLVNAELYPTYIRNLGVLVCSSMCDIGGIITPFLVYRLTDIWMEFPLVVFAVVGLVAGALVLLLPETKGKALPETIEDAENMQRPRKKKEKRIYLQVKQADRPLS

[9] = Apparent intrinsic clearance in human hepatocytes assessed per million of cells; format: ADME, cell-based, Liver, Hepatocyte
[10] = target: T4, Organic anion transporter 3 (Homo sapiens, UniProt Q8TCC7); assay: Inhibition of human OAT3
T4 sequence (Q8TCC7 whole entry): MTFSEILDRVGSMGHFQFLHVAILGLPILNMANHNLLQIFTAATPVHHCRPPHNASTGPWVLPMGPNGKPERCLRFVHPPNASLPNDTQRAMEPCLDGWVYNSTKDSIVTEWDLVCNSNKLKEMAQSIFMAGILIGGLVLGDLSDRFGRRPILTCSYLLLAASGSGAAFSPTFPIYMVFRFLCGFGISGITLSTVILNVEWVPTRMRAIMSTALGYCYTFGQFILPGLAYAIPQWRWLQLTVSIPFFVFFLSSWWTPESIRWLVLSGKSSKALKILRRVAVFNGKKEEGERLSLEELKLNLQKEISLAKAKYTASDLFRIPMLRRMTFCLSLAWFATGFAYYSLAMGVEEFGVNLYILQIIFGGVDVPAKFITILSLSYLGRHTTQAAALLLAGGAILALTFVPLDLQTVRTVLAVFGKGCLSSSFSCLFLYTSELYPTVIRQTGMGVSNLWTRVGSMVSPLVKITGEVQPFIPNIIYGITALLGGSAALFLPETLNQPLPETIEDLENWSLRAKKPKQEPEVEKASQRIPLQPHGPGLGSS

inhibition (INH) [2]: Not Active
inhibition (INH) [3]: Not Active
microsomal CLint [5]: 12 µL/min/mg
Vd [6]: 1.13 L/kg
logD [7]: 3.6
inhibition (INH) [8]: Not Active
hepatocyte CLint [9]: 4.5 µL/min/1e6 cells
inhibition (INH) [10]: Not Active
Compound: CCOc1ccc(Cc2cc([C@]34OC[C@](CO)(O3)[C@@H](O)[C@H](O)[C@H]4O)ccc2Cl)cc1 [ERTUGLIFLOZIN]
Activity (Rattus norvegicus [1]): 2554 mg
Activity (Rattus norvegicus [4]): Dose-dependent effect
